Reference: PubChem BioAssay AID493130 (Broad Institute, 2011)
Inconclusive results are not listed. Activity calls are given as the source filed them.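 The calls were made as follows: active = signal-lowering compounds whose fitted half-maximal concentration is at most ten times their highest tested dose; inconclusive = flat fit between -30 and -70%, or poor fit; inactive = flat within 30%, signal rising, or potency beyond limit.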

target: POS-1 (Caenorhabditis elegans) binding to mex-3 RNA; assay: inhibitors of POS-1/mex-3 RNA binding, dose response, counter-screen for MEX-5 RNA-binding inhibitor project, biochemical, fluorescence polarization, cherry-picked samples, set 2 (AID 493130); conditions: POS-1/mex-3 RNA fluorescence polarization, 1 h;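 also: POS-1 as maltose binding protein fusion made in E. coli with FITC RNA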

SMILES | AC50
Cc1cc(=O)oc(C)c1C(=O)Nc1ccc2ncccc2c1 | 8.33 µM
Cc1oc2c(cc(NS(=O)(=O)c3ccc(C(C)C)cc3)c3ccccc32)c1C(=O)O | 10.4 µM
COc1ccc(NC(=O)c2cccc(-c3ccc(O)cc3)c2)cn1 | 3.93 µM
CCc1ccc[n+](-c2[nH]c(=O)sc2/C=N/NC([S-])=Nc2ccccc2)c1 | 2.54 µM
CN(CCC#N)C(=O)COC(=O)c1c2c(nc3ccccc13)/C(=C/c1ccco1)CC2 | > 10 µM (inactive)
CC1(C)CC(=O)C2=C(C1)N=c1s/c(=C/c3ccc(F)c(F)c3)c(=O)n1C2c1ccc(F)cc1 (stereo unspecified) | > 10 µM (inactive)
Cc1c2ccccc2nc2c(F)c(NCCO)c(F)c(F)c12 | 0.854 µM
COc1ccc(N=Nc2nc3ccc(Br)cc3n2C)cc1 | 2.16 µM
CN(C)[C@@H]1C(=O)C(C(N)=O)=C(O)[C@@]2(O)C(=O)C3=C(O)c4c(O)cccc4[C@@](C)(O)[C@H]3[C@H](O)[C@@H]12 | 4.07 µM
Cc1ccc(NC(=O)/C(C#N)=C(\N)C(Cl)(Cl)Cl)nc1 | 6.68 µM
Cc1ccc(O)c(C(=O)c2cc(C#N)c(=O)n(-c3nccs3)c2)c1 | 4.09 µM
COc1ccc2c(c1)NP(=S)(Oc1ccccc1)N2 (stereo unspecified) | 6.91 µM
COc1ccccc1C(=O)Oc1ccc2c(c1)O/C(=C\c1ccncc1)C2=O | 3.41 µM
CC(=O)Nc1ccc(S(=O)(=O)NNC(=O)C(=O)NNc2ccccn2)cc1 | > 10 µM (inactive)
CCCC1C2CN(C(C)C)CC=C2C(C#N)=C(N)C1(C#N)C#N (stereo unspecified) | 1.81 µM
CC(=O)Nc1ccc(N2C(=O)c3cccc4c(O)ccc(c34)C2=O)cc1 | 1.41 µM
CCN1CC=C2C(C#N)=C(N)C(C#N)(C#N)[C@H](c3ccoc3)[C@H]2C1 | 6.73 µM
NS(=O)(=O)c1ccc(-c2ccc(C=C3C(=O)NC(=S)NC3=O)o2)cc1 | 8.28 µM

same assay, conditions: POS-1/mex-3 RNA fluorescence polarization, 1 h; at 10 µM (top of the series)

SMILES | activity change, negative = inhibition
Cc1c(CN2CCCC(C)C2)c(O)n(CCO)c(=O)c1C#N (stereo unspecified) | inactive
C=CCOc1ccc(C(c2c(C(=O)O)[nH]c3ccccc23)c2c(C(=O)O)[nH]c3ccccc23)cc1 | inactive
O=C(NNC(=O)c1cc(Cl)ccc1[N+](=O)[O-])c1csc(N2CCOCC2)n1 | inactive
O=C(CCN1C(=O)/C(=C/c2ccccc2Cl)SC1=S)NNC(=O)c1ccccc1O | inactive
C[C@H](O)CC1=C[C@H](O)[C@@H](C)OC1=O | inactive
O=C(O)Cn1c(O)c(C2=c3ccccc3=NC2=O)sc1=O | inactive
COc1ccc(N=C2S/C(=C\c3ccc(N4CCOCC4)o3)C(=O)N2CCc2c[nH]c3ccccc23)cc1 | inactive
CCOC(=O)c1cnc2c(N=Nc3ccccc3)c(N)nn2c1N | inactive
CC(=O)NNc1ncnc2ccccc12 | inactive
COc1cccc(NC(=O)CSc2nc3ccccc3nc2N2CCOCC2)c1 | inactive
CCc1ccc(N2C(=O)NC(=O)/C(=C\c3cccn3CCOc3ccc(C(C)C)cc3)C2=O)cc1 | inactive
CCOC(=O)CNc1nc2ccccc2n2c(C)nnc12 | inactive
COc1ccc(NS(=O)(=O)c2cccc(C(=O)NNC(=O)c3cc(S(N)(=O)=O)ccc3OC)c2)cc1 | inactive
CC(=O)Nc1ccc(S(=O)(=O)/N=C2/NC(=O)/C(=C\c3ccco3)S2)cc1 | inactive
CC(=Nc1ccc(C)cc1C)c1sc2ccccc2c1O | inactive
Nc1cc(C(=O)O)c(Oc2ccc(Cl)cc2Cl)cc1C(=O)O | inactive
CC1=NOC(=O)/C1=C/c1ccc2c(c1)OCO2 | inactive
O=C(Nc1cccc2ncccc12)c1ccccc1[N+](=O)[O-] | inactive
CCn1c(C)c(C(C)=O)c(N2CCN(c3ccccc3)CC2)nc1=S | inactive
O=C(NNC(=O)c1ccc(O)c(Cl)c1)c1cccc(S(=O)(=O)N2CCOCC2)c1 | inactive
CCCOc1ccc([C@@H]2C3CN(C(=O)OCC)CC=C3C(C#N)=C(N)C2(C#N)C#N)cc1OC (stereo partly specified) | inactive
CCOc1cc(/C=N/NC(=O)N/N=C/c2ccc(O)c(OCC)c2)ccc1O | inactive
COc1ccc(N/C=C/C(=O)c2ccc3c(c2)OCO3)cc1OC | inactive
O=C(O)CCCCCN1C(=O)C(O)=C(C(=O)/C=C/c2ccccc2)C1c1ccccc1[N+](=O)[O-] (stereo unspecified) | inactive
CC(C)OC(=O)c1c2c(n3ccccc13)C(=O)c1ccccc1C2=O | inactive

SMILES | activity change, negative = inhibition
O=[N+]([O-])c1ccc(C2=CSC3=NCCN23)cc1 | inactive
COc1cc2c3c(c1OC)-c1cc(O)ccc1CC3NCC2 (stereo unspecified) | inactive
O=S(=O)(O)c1cc(O)c2c(O)c(N=Nc3cc(Cl)ccc3O)c(S(=O)(=O)O)cc2c1 | inactive
O=C(C[n+]1ccc(C(=O)N/N=C/c2ccc(OCc3ccccc3)cc2)cc1)c1ccccc1 | inactive
CCC(=O)NCCc1nc2ccccc2n1Cc1ccccc1 | inactive
C#CCOCCOCCOCCNc1nc(N2CCN(C(=O)[C@H]([C@@H](C)O)n3cc(CCCCN)nn3)CC2)nc(N2CCN(C(=O)[C@H](C)n3cc(CCCN=C(N)N)nn3)CC2)n1 | inactive
N#CC1=C(N)Oc2c(O)cc3ccccc3c2C1c1ccsc1 (stereo unspecified) | inactive
O=C(NNc1ccccc1)C(=O)NNS(=O)(=O)c1ccc(CCCl)cc1 | inactive
COc1ccc(-n2c(C)nc3cc(C(=O)O)ccc32)cc1 | inactive
CN(C)C1C(=O)C(C(N)=O)=C(O)C2(O)C(=O)C3=C(O)c4c(O)cccc4C(C)(O)C3CC12 (stereo unspecified) | inactive
COc1ccc(CN2C(=O)NC(=O)/C(=C\c3ccco3)C2=O)cc1 | inactive
CC(=O)c1c2c3c(c(Br)ccc3n(C)c1=O)C(=O)c1ccccc1-2 | inactive
CN1C(=O)/C(=C/c2cn(CC(=O)N3CCCCC3)c3ccccc23)c2ccccc21 | inactive
Nc1nonc1C(=O)N/N=C/c1cc(Br)ccc1O | inactive
NC(=S)N=Nc1c(O)[nH]c2ccccc12 | inactive
CN(C)c1ccc(C(c2nnnn2CCOC(=O)Nc2ccc(Cl)cc2)N2CCOCC2)cc1 (stereo unspecified) | inactive
Cc1c(-c2ccc(F)cc2)nc(N)c(C#N)c1-c1ccco1 | inactive
O=Nc1[nH]c(=O)c(/C=C(\O)c2ccccc2)nc1NO | inactive
Nc1ccc(Cc2ccc(N)c(C(=O)O)c2)cc1C(=O)O | inactive
COc1c(O)ccc(/C=C(\C#N)c2nc3ccccc3[nH]2)c1[N+](=O)[O-] | inactive
O=[N+]([O-])c1ccc(-c2cn3nc(-c4ccccc4)c(-c4ccccc4)nc3n2)cc1 | inactive
O=S(=O)(Nc1ccc(O)c(NS(=O)(=O)c2ccccc2)c1)c1ccccc1 | inactive
CCOC(=O)Cc1csc(NC(=O)c2sc3nc4ccc(CC)cc4cc3c2N)n1 | inactive
O=c1c(OC2OC(CO)C(O)C(O)C2O)c(-c2ccc(O)c(O)c2)oc2cc(O)cc(O)c12 (stereo unspecified) | inactive
COc1cc2c(cc1O)C[C@H]1NCCc3cc4c(c-2c31)OCO4 | inactive

SMILES | activity change, negative = inhibition
O=C(CCCN1C(=O)/C(=C/c2ccccc2Cl)SC1=S)NNC(=O)c1ccc(Cl)cc1 | inactive
COC(=O)/C(C#N)=C/c1c(-c2ccccc2)nc2n1CCS2 | inactive
COc1ccc(/C=N/Nc2nc(=O)[nH]nc2C)cc1[N+](=O)[O-] | inactive
CCOc1ccc(/C=C2\SC(=S)N(Nc3ccccc3)C2=O)cc1OC | inactive
CCn1c(O)c(N=NC(=O)CNC(=O)/C=C/c2ccco2)c2ccccc21 | inactive
COc1nc(N/N=C/c2ccc(-c3ccccc3[N+](=O)[O-])o2)nc(N2CCOCC2)n1 | inactive
CC1=NN(C(N)=S)C(=O)C1N=Nc1ccccc1C (stereo unspecified) | inactive
O=C(N/N=C/c1cc2c(cc1Cl)OCO2)c1ccccn1 | inactive
O=[N+]([O-])c1cc(S(=O)(=O)c2ccc(O)c([N+](=O)[O-])c2)ccc1O | inactive
Cc1nnc(-c2cccc(Br)c2)c2cn(-c3cccc(Br)c3)nc12 | inactive
CCOC(=O)c1c(=O)n(O)c2ccc(OC)cc2[n+]1[O-] | inactive
Cc1ccc(C(=O)NNc2ncnc3c2cnn3C)cc1 | inactive
O=C(NNC(=O)c1ccccc1Cl)c1csc(N2CCOCC2)n1 | inactive
O=C(O)c1cccc(NC2=C(Cl)C(=O)c3ccccc3C2=O)c1 | inactive
CCCCCOP(=O)(OCCCCC)C1(NS(=O)(=O)c2ccccc2)C=CC(=O)c2ccccc21 (stereo unspecified) | inactive
C=CCn1c(O)c(N=NC(=S)Nc2cccc(C)c2)c2ccccc21 | inactive
Cc1ccc(NC(=O)CCC(=O)NNC(=S)Nc2ccc(F)cc2)c(C)c1 | inactive
COc1ccc(CC(=O)NNc2ncnc3c2cnn3C)cc1 | inactive
COc1ccccc1-n1c(C)nc2cc(C(=O)NCc3ccc4c(c3)OCO4)ccc21 | inactive
COc1cccc(CNC23CC4CC(CC(C4)C2)C3)c1OCc1ccccc1 | inactive
CCCC(=O)Nc1ccc(NC(=O)c2cccs2)cn1 | inactive
CC(=O)N1CCc2c(sc(NC(=O)C3CCCN3S(=O)(=O)c3cccs3)c2C#N)C1 (stereo unspecified) | inactive
O=C(O)c1cc(Oc2ccc(C(F)(F)F)cc2Cl)ccc1[N+](=O)[O-] | inactive
